Experimental findings from publication PMC8546167, “Osh6 Revisited: Control of PS Transport by the Concerted Actions of PI4P and Sac1 Phosphatase” (Frontiers in Molecular Biosciences, 2021) are described below.

The target of the experiment is T1, Osh6 (Saccharomyces cerevisiae, UniProt Q02201).
T1 construct: recombinant in E. coli BL21 Star; N-terminal His6-GB1 tag cleaved by TEV
T1 sequence (Q02201 1-448): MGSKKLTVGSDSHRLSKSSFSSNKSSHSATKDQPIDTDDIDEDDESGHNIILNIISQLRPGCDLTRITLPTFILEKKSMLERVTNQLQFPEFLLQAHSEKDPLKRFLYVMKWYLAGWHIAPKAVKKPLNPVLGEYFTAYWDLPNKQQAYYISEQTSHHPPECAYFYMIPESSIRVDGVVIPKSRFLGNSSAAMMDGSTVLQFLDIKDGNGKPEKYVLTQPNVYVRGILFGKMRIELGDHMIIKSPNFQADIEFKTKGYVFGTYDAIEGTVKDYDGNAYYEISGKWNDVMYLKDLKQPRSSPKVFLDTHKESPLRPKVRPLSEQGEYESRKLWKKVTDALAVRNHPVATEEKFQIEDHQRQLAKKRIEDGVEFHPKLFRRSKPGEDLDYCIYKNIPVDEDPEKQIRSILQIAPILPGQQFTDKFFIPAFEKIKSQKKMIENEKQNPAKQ
The experiment can be described thus: FRET transport between LUVs, C2Lact-CFP biosensor and ATTO488-DOPE. The following applies: 100 nM Osh6; 5 mol% POPS donor LUVs to POPC acceptor LUVs. The experiment is classed as biochemical.

As to `CCCCCCCC/C=C\CCCCCCCC(=O)O[C@H](COC(=O)CCCCCCCCCCCCCCC)COP(=O)(O)OC[C@H](N)C(=O)O` [PS, POPS], the “FRET transport between LUVs, C2Lact-CFP biosensor and ATTO488-DOPE” value is given as “Osh6 molecules pick up PS molecules from any membrane of high PS content”.
